Read-outs that look alike come from different tables or passages of the source.

The test system of one data set is OVCAR-4. The experiment in a line: panel of 60 human tumor cell lines, growth inhibition (Ovarian Cancer). The class given is cell-based. Conditions: for GI50 / IC (TGI) / CC50: Homo sapiens; for CC50: read-out: LC50 (the source's name).
The subject of the next data set is AML 052308 cells. The experiment in a line: cells. Conditions: read-out: LC50.
[1] abbreviates: OVCAR-4, Log10 Concentration −4.0.
[2] abbreviates: OVCAR-4, Log10 Concentration −5.0.
Where [3] appears, read: OVCAR-4, Log10 Concentration −6.0.
Where [4] appears, read: OVCAR-4, Log10 Concentration −7.0.
Where [5] appears, read: OVCAR-4, Log10 Concentration −8.0.

Source text for AML 052308 cells: Derivatives were screened for antileukemic activity against AML cells in culture (See FIGS. 1-7).

With `C=C1C(=O)O[C@H]2[C@H]1CC/C(COC(=O)NCCN1CCOCC1)=C\CC[C@@]1(C)O[C@@H]21` [JVM 57, ((1aR,7aS,10aS,10bS,E)-1a-methyl-8-methylene-9-oxo-1a,2,3,6,7,7a,8,9,10a,10b-decahydrooxireno[2′,3′:9,10]-cyclodeca[1,2-b]furan-5-yl)-methyl(2-morpholinoethyl)carbamate], in the data set with OVCAR-4 (OVCAR-4), the GI50 turned out to be 10.1 µM, the IC (TGI) was determined as 25.3 µM and the CC50 amounted to 63.4 µM.
`C=C1C(=O)O[C@H]2[C@H]1CC/C(COC(=O)CCC(=O)NCc1ccc(Cl)nc1)=C\CC[C@@]1(C)O[C@@H]21` [JVM 96] had a GI50 in the data set on OVCAR-4 (OVCAR-4) of 10.1 µM. Moreover, the IC (TGI) in the data set with OVCAR-4 (OVCAR-4) amounted to 23.6 µM. Further, the CC50 with OVCAR-4 (OVCAR-4) turned out to be 55.2 µM. The “Percent Growth” value in the data set on OVCAR-4 (setting [1]) is on record as −85%; in the data set with OVCAR-4 (setting [2]), 51%; in the data set on OVCAR-4 (setting [3]) it was 87%; in the data set on OVCAR-4 (setting [4]) it was 90%; in the data set with OVCAR-4 (setting [5]) it was 96%.
Take `C=C1C(=O)O[C@H]2[C@H]1CC/C(COC(=O)NCCc1ccccn1)=C\CC[C@@]1(C)O[C@@H]21` [JVM 61, ((1aR,7aS,10aS,10bS,E)-1a-methyl-8-methylene-9-oxo-1a,2,3,6,7,7a,8,9,10a,10b-decahydrooxireno[2′,3′:9,10]cyclodeca[1,2-b]furan-5-yl)methyl-(2-(pyridin-2-yl)ethyl)carbamate]: in the data set with OVCAR-4 (OVCAR-4), the GI50 came to 7.17 µM. Moreover, in the data set with OVCAR-4 (OVCAR-4), the IC (TGI) turned out to be 24.6 µM. The CC50 in the data set on OVCAR-4 (OVCAR-4) stood at 72.3 µM. Moreover, the “Percent Growth” value in the data set with OVCAR-4 (setting [1]) is recorded as −65%; with OVCAR-4 (setting [2]) it was 42%; with OVCAR-4 (setting [3]) it was 99%; with OVCAR-4 (setting [4]), 96%; in the data set on OVCAR-4 (setting [5]), 103%.
For the compound `C=C1C(=O)O[C@H]2[C@H]1CC/C(COC(=O)NCCCCCCO)=C\CC[C@@]1(C)O[C@@H]21` [JVM 2-31], in the data set on OVCAR-4 (OVCAR-4, NCI five dose), the GI50 was 4.01 µM, the IC (TGI) worked out at 19.4 µM and the CC50 stood at 65.1 µM.
In the case of `C=C1C(=O)O[C@H]2[C@H]1CC/C(COC(=O)OC)=C\CC[C@@]1(C)O[C@@H]21` [JVM 2-40], in the data set with OVCAR-4 (OVCAR-4, NCI five dose), the GI50 was 3.76 µM, the IC (TGI) was 18.7 µM and the CC50 was determined as 64.1 µM.
Turning to `C=C1C(=O)O[C@H]2[C@H]1CC/C(COC(=O)N1CCN(C)CC1)=C\CC[C@@]1(C)O[C@@H]21` [JVM 2-44], the CC50 in the data set with KM12 was 68.9 µM; in the data set on UO-31, 47.6 µM; in the data set on SK-OV-3, greater than 100 µM; with MCF7, 60.1 µM; with NCI-H23, 82.4 µM; in the data set on SF-295 it was greater than 100 µM. Moreover, the CC50 was determined as 48 µM with HCT-116; 76 µM in the data set with IGROV1; 55.1 µM in the data set with SF-539; 52.6 µM in the data set with ACHN; 48.7 µM in the data set with MDA-MB-468; 42.3 µM in the data set with OVCAR-3. Besides, the CC50 is greater than 100 µM with SR and 64.8 µM in the data set on COLO 205.
On to `C=C1C(=O)O[C@H]2[C@H]1CC/C(COC(=O)NC)=C\CC[C@@]1(C)O[C@@H]21` [JVM 2-57], for which the CC50 is 55.9 µM in the data set with KM12; 36.9 µM in the data set with UO-31; 90.3 µM in the data set with RPMI-8226; greater than 100 µM in the data set on SK-OV-3; 47.7 µM in the data set with MCF7; 66.1 µM with NCI-H23. Moreover, the CC50 in the data set with SF-295 is greater than 100 µM; in the data set with HCT-116, 33.6 µM; in the data set with IGROV1, 77 µM; with SF-539, 42.9 µM; in the data set on ACHN, 43.3 µM; in the data set with MDA-MB-468, 49 µM. In addition, the results for the CC50 in the data set on OVCAR-3 and in the data set on SR were 34.3 µM and greater than 100 µM, respectively.
As for `C=C1C(=O)O[C@H]2[C@H]1CC/C(COC(=O)Nc1n[nH]c(SC)n1)=C\CC[C@@]1(C)O[C@@H]21` [JVM 64, ((1aR,7aS,10aS,10bS,E)-1a-methyl-8-methylene-9-oxo-1a,2,3,6,7,7a,8,9,10a,10b-decahydrooxireno[2′,3′:9,10]cyclodeca[1,2-b]furan-5-yl)methyl-(5-(methylthio)-1H-1,2,4-triazol-3-yl)carbamate], in the data set on AML 052308 cells, the CC50 stood at 7.4 µM. Moreover, in the data set on OVCAR-4 (OVCAR-4, NCI five dose), the GI50 came out at 3.28 µM, the IC (TGI) came to 19.3 µM and the CC50 came to 62.4 µM.
For `C=C1C(=O)O[C@H]2[C@H]1CC/C(COC(=O)CCC(=O)N1CCC(C)CC1)=C\CC[C@@]1(C)O[C@@H]21` [JVM 2-70], the CC50 was 56.6 µM with KM12; 46.9 µM with UO-31; greater than 100 µM in the data set with RPMI-8226; greater than 100 µM with SK-OV-3; 64.1 µM with MCF7; 64.3 µM in the data set with NCI-H23. Also, the CC50 was 71 µM in the data set on SF-295; 11.9 µM in the data set with HCT-116; 94 µM in the data set with IGROV1; 43.5 µM with ACHN; 32.5 µM in the data set on OVCAR-3; greater than 100 µM with SR. In the data set on COLO 205, this compound gave a CC50 of 31.9 µM.
Regarding `C=C1C(=O)O[C@H]2[C@H]1CC/C(COC(=O)NCCN1CCCCC1)=C\CC[C@@]1(C)O[C@@H]21` [JVM 2-13], the CC50 was 61.6 µM in the data set on KM12; 49.5 µM in the data set on UO-31; greater than 100 µM in the data set with SK-OV-3; 62.5 µM with MCF7; 65.5 µM with NCI-H23; greater than 100 µM with SF-295. Also, the CC50 with IGROV1 was 81.2 µM; in the data set on SF-539 it was 48.4 µM; with ACHN it was 45.6 µM; with MDA-MB-468 it was 28.5 µM; in the data set with SR it was greater than 100 µM; with COLO 205, 7.75 µM.
Turning to `C=C1C(=O)O[C@H]2[C@H]1CC/C(COC(=O)NCCO)=C\CC[C@@]1(C)O[C@@H]21` [JVM 2-50], the CC50 in the data set with UO-31 is 77.1 µM; in the data set on RPMI-8226, greater than 100 µM; in the data set on SK-OV-3, greater than 100 µM; in the data set on MCF7, 75.5 µM; with NCI-H23, 94.3 µM; in the data set on SF-295, greater than 100 µM. Moreover, the CC50 in the data set on IGROV1 was greater than 100 µM; in the data set on SF-539, 56.2 µM; with ACHN it was 71.1 µM; in the data set on MDA-MB-468, 49.1 µM; with OVCAR-3, 47.3 µM; in the data set with SR, greater than 100 µM. This compound also returned a CC50 with COLO 205 of 50.7 µM.
Turning to `C=C1C(=O)O[C@H]2[C@H]1CC/C(COC(=S)n1ccnc1)=C\CC[C@@]1(C)O[C@@H]21` [JVM 66], the CC50 in the data set with AML 052308 cells came to 2.6 µM. In the data set on OVCAR-4 (OVCAR-4, NCI five dose), the concentration for 50% growth inhibition (GI50) was 19.8 µM, the IC (TGI) was 90.9 µM and the CC50 was greater than 100 µM.
Consider `C=C1C(=O)O[C@H]2[C@H]1CC/C(COC(=O)OCCCN1CCCCC1)=C\CC[C@@]1(C)O[C@@H]21` [JVM 2-26], for which the CC50 in the data set on AML 052308 cells came out at 5 µM. In the data set with OVCAR-4 (OVCAR-4), the GI50 worked out at 2.13 µM, the IC (TGI) turned out to be 11.6 µM and the CC50 was 38.6 µM.
As for `C=C1C(=O)O[C@H]2[C@H]1CC/C(COC(=O)N1CCC(F)(F)CC1)=C\CC[C@@]1(C)O[C@@H]21` [JVM 2-66], the CC50 in the data set on KM12 is 54.5 µM; in the data set with UO-31, 22.2 µM; with RPMI-8226, greater than 100 µM; with SK-OV-3 it was 63.8 µM; in the data set with MCF7 it was 26.4 µM; in the data set on NCI-H23, 48.2 µM. Moreover, the CC50 stood at 51.5 µM in the data set on SF-295; 7.75 µM with HCT-116; 59.7 µM with IGROV1; 12.3 µM in the data set on SF-539; 11.5 µM with MDA-MB-468; 9.62 µM in the data set on OVCAR-3. For the same compound, the values for the CC50 with SR and with COLO 205 were greater than 100 µM and 8.44 µM, respectively.
Regarding `C=C1C(=O)O[C@H]2[C@H]1CC/C(COC(=O)NCCN1CCCC1)=C\CC[C@@]1(C)O[C@@H]21` [JVM 59, ((1aR,7aS,10aS,10bS,E)-1a-methyl-8-methylene-9-oxo-1a,2,3,6,7,7a,8,9,10a,10b-decahydrooxireno[2′,3′:9,10]cyclodeca[1,2-b]furan-5-yl)methyl-(2-(pyrrolidin-1-yl)ethyl)carbamate], in the data set with OVCAR-4 (OVCAR-4, five dose), halving of growth (GI50) required 10.4 µM, the IC (TGI) amounted to 24.7 µM and the CC50 is 58.5 µM.
For `C=C1C(=O)O[C@H]2[C@H]1CC/C(COC(=O)OCCN(C)C)=C\CC[C@@]1(C)O[C@@H]21` [JVM 2-35], in the data set on OVCAR-4 (OVCAR-4, NCI five dose), the GI50 was found to be 5.04 µM, the IC (TGI) was found to be 18.6 µM and the CC50 amounted to 44.6 µM.

(Values after US9469650B2, “Melampomagnolide B derivatives” (BOARD OF TRUSTEES OF THE UNIVERSITY OF ARKANSAS, priority 2013, dated 2016).)
